From US20070219180A1, “Muscle Relaxtion Accelerator and Therapeutic Agent for Muscular Tissue Diseases Such as Muscle Relaxation Failure” (priority 2004, published 2007)

Legend:
male Wistar rats = assay: Experiment 2: effect of the compound on blood pressure in rats under calcium chloride and norepinephrine infusion; format: in vivo, rat
Procedure: Eight-week old male Wistar rats weighing 310-330 g were used in this experiment. The rats were anesthetized with 1,000 mg/kg of urethane and 80 mg/kg of α-chloralose by subperitoneal injection, and natural respiration was maintained. In this experiment, 100 mg of the compound was dissolved in 1 ml of dimethylsulfoxide (DMSO) and the resulting DMSO solution of the compound was stored at 4° C. Norepinephrine solution was prepared by dissolving 1 mg of norepinephrine in 41 μl of distilled water.
Similarly to Experiment 1, this experiment was performed at 20 to 25° C. Furthermore, similarly to Experiment 1, continuous infusion catheters of calcium chloride solution or norepinephrine solution containing calcium chloride were inserted into the right external jugular veins of the rats, and microchip catheters (SPC-320, Millar) were inserted into the aorta via the right common arteries.
A 1-lead electrocardiogram and the systolic pressure and diastolic pressure were recorded on a personal computer via an A/D converter. In the preparation step, blood pressure, pulse, and electrocardiogram of the rats were monitored for 15 minutes and allowed to stabilize, and then 5% dextrose solution containing calcium chloride (at a concentration based on the weight of the rat) was infused into the right external jugular vein for 25 minutes at 16.6 μl/min (9.0 mg/kg/min of calcium chloride).
Secondly, norepinephrine solution containing calcium chloride without changes in the dosage regimen was immediately injected at a rate of 40 μg/kg/min (in the form of a norepinephrine solution containing calcium chloride). Five minutes after commencement of injection (intravenous injection) of norepinephrine, continuous injection of calcium chloride and norepinephrine in the form of a norepinephrine solution containing calcium chloride was started, and 0.2 ml of 1% DMSO solution as a solvent control was administered over 30 seconds to the first rat (weight: 310 g) via the right femoral vein; this rat was defined as Control 3. After the solvent control was injected, 1% DMSO solution as a solvent control was additionally administered to Control 3 at 10 μl/min from commencement of solvent control injection to 15 minutes after the start of administration. Similarly to Control 3, 5 minutes after commencement of injection (intravenous injection) of norepinephrine in the form of a norepinephrine solution containing the calcium chloride, continuous injection of the calcium chloride and norepinephrine in the form of a norepinephrine solution containing calcium chloride was started, and 0.2 ml of 1% DMSO solution containing 0.3 mg/kg of the compound was administered over 30 seconds to a second rat (weight: 330 g; referred to as Test drug 3), and 1% DMSO solution containing 0.02 mg/kg of the test drug was then administered for 14 minutes at a rate of 0.02 mg/kg/min. Systolic pressure (mmHg) and diastolic pressure (mmHg) of each rat were measured at 20 heart beats every 2 minutes for 14 minutes after commencement of intravenous injection of the test drug. Mean blood pressure was calculated from the measured systolic pressure (mmHg) and diastolic pressure (mmHg) according to the following formula: mean blood pressure=[…].

myosin light chains = assay: Experiment 5: amount of precipitate of myosin light chains; format: binding, swine; settings: concentration of the compound 10^−3 mol
Procedure: In this experiment, the effects of the compound were studied on the amount of precipitate of myosin light chains, which is a component of the troponin test sample used in Experiment 4.
A sample buffer for polyacrylamide gel electrophoresis (SDS-PAGE) was added to each washed test precipitate, which was prepared in the manner described above, and mixed well to suspend the test precipitate. The resulting suspension was electrophoresed on a gel (PAG MINI “No. 1” 10/20) for about 1 hour at 40 mA. After electrophoresis, the suspension was silver-stained using “Daiichi” 2D-silver staining reagent (Daiichi Pure Chemicals Co., Ltd), and washed with distilled water and dried. The amount of precipitate in each silver-stained protein band obtained by gel electrophoresis was quantitated using a densitometer. […] The protein band from gel electrophoresis was stained using a reagent for mass spectrometry (silver staining reagent for mass spectrometry, Wako Pure Chemical Industries Ltd.), and a peptide fragment obtained from the protein that gave the band in gel electrophoresis was analyzed using high performance liquid chromatography (MAGIC2002, Michrom BioResources, Inc, USA).

In the case of `COc1ccc2c(c1)CN(C(=O)CCN1CCC(Cc3ccccc3)CC1)CCS2` [the compound, 4-[3-(4-benzylpiperidine-1-yl)propionyl]-7-methoxy-2,3,4,5-tetrahydro-1,4-benzothiazepine], the Mean blood pressure (male Wistar rats; Test drug 3: 0.3 mg/kg i.v. over 30 s then 0.02 mg/kg/min for 14 min, 0 minutes (just before the start of test drug administration)) is reported as 136 mmHg, the Mean blood pressure (male Wistar rats; Test drug 3: 0.3 mg/kg i.v. over 30 s then 0.02 mg/kg/min for 14 min, 5 minutes before test drug (just before the start of norepinephrine), baseline) is reported as 125 mmHg and the Mean blood pressure (male Wistar rats; Test drug 3: 0.3 mg/kg i.v. over 30 s then 0.02 mg/kg/min for 14 min, 30 minutes before test drug (5 minutes before the start of CaCl2), baseline) is reported as 122 mmHg. For the same molecule, the Mean blood pressure (male Wistar rats; Test drug 3: 0.3 mg/kg i.v. over 30 s then 0.02 mg/kg/min, CaCl2 + norepinephrine infusion, 2 minutes after the start of test drug administration) was 149 mmHg, the Mean blood pressure (male Wistar rats; Test drug 3: 0.3 mg/kg i.v. over 30 s then 0.02 mg/kg/min, CaCl2 + norepinephrine infusion, 4 minutes after the start of test drug administration) was 162 mmHg and the Mean blood pressure (male Wistar rats; Test drug 3: 0.3 mg/kg i.v. over 30 s then 0.02 mg/kg/min, CaCl2 + norepinephrine infusion, 6 minutes after the start of test drug administration) was 141 mmHg. It also gave a Mean blood pressure (male Wistar rats; Test drug 3: 0.3 mg/kg i.v. over 30 s then 0.02 mg/kg/min, CaCl2 + norepinephrine infusion, 8 minutes after the start of test drug administration) of 139 mmHg, a Mean blood pressure (male Wistar rats; Test drug 3: 0.3 mg/kg i.v. over 30 s then 0.02 mg/kg/min, CaCl2 + norepinephrine infusion, 10 minutes after the start of test drug administration) of 135 mmHg and a Mean blood pressure (male Wistar rats; Test drug 3: 0.3 mg/kg i.v. over 30 s then 0.02 mg/kg/min, CaCl2 + norepinephrine infusion, 12 minutes after the start of test drug administration) of 136 mmHg. The Mean blood pressure (male Wistar rats; Test drug 3: 0.3 mg/kg i.v. over 30 s then 0.02 mg/kg/min, CaCl2 + norepinephrine infusion, 14 minutes after the start of test drug administration) was 134 mmHg, the “The amount of precipitate of myosin light chains (ratio to Test 1 = 1.0)” value (myosin light chains; Test 3: Ca^2+ concentration 0 mol) was 1.5 and the “The amount of precipitate of myosin light chains (ratio to Test 1 = 1.0)” value (myosin light chains; Test 4: Ca^2+ concentration 10^−5 mol) was 1.4.
